What was measured:
[1] = 101 kPa, Liquid; for viscosity: Falling or rolling sphere viscometry; for speed of sound: Sing-around technique in a fixed-path interferometer; for mass density: Vibrating tube method
[2] = refractive index (Na D-line) (dimensionless); conditions: 101 kPa, Liquid, Standard Abbe refractometry
[3] = refractive index (Na D-line) (dimensionless); xn = mol fraction of the nth substance listed; conditions: 101 kPa, Liquid, Standard Abbe refractometry, x2 = 0
[4] = xn = mol fraction of the nth substance listed; conditions: 101 kPa, Liquid, x2 = 0; for viscosity: Falling or rolling sphere viscometry; for speed of sound: Sing-around technique in a fixed-path interferometer; for mass density: Vibrating tube method

CCCCn1cc[n+](C)c1.F[B-](F)(F)F [1-butyl-3-methylimidazolium tetrafluoroborate]
Conditions | mass density, [1] [kg/m3] | refractive index, [2] | speed of sound, [1] [m/s] | viscosity, [1] [mPa·s]
278.15 K | 1215.9 | – | 1615 | 361
288.15 K | 1208.5 | 1.4243 | 1590 | 186
298.15 K | 1201.3 | 1.4217 | 1565 | 105
308.15 K | 1194.2 | 1.419 | 1542 | 64.8
318.15 K | 1187.2 | 1.4164 | 1519 | 42.7

CCn1cc[n+](C)c1.F[B-](F)(F)F [1-ethyl-3-methylimidazolium tetrafluoroborate]
Conditions | mass density, [1] [kg/m3] | refractive index, [2] | speed of sound, [1] [m/s] | viscosity, [1] [mPa·s]
278.15 K | 1305.3 | – | 1677 | 101
288.15 K | 1297.6 | 1.4143 | 1653 | 62
298.15 K | 1290 | 1.4118 | 1629 | 41
308.15 K | 1282.4 | 1.4092 | 1606 | 28.8
318.15 K | 1274.9 | 1.4067 | 1583 | 21.2

CO [methanol]
Conditions | mass density, [1] [kg/m3] | refractive index, [2] | speed of sound, [1] [m/s] | viscosity, [1] [mPa·s]
278.15 K | 805.4 | – | 1169 | 0.687
288.15 K | 796 | 1.3316 | 1135 | 0.596
298.15 K | 786.6 | 1.3265 | 1102 | 0.524
308.15 K | 777.1 | 1.3224 | 1070 | 0.466
318.15 K | 767.6 | 1.3182 | 1037 | 0.42

CO [methanol] + CCCCn1cc[n+](C)c1.F[B-](F)(F)F
Conditions | mass density, [4] [kg/m3] | refractive index, [3] | speed of sound, [4] [m/s] | viscosity, [4] [mPa·s]
278.15 K | 805.4 | – | 1169 | 0.687
288.15 K | 796 | 1.3316 | 1135 | 0.596
298.15 K | 786.6 | 1.3265 | 1102 | 0.524
308.15 K | 777.1 | 1.3224 | 1070 | 0.466
318.15 K | 767.6 | 1.3182 | 1037 | 0.42

CO [methanol] + CCn1cc[n+](C)c1.F[B-](F)(F)F
Conditions | mass density, [4] [kg/m3] | refractive index, [3] | speed of sound, [4] [m/s] | viscosity, [4] [mPa·s]
278.15 K | 805.4 | – | 1169 | 0.687
288.15 K | 796 | 1.3316 | 1135 | 0.596
298.15 K | 786.6 | 1.3265 | 1102 | 0.524
308.15 K | 777.1 | 1.3224 | 1069 | 0.466
318.15 K | 767.6 | 1.3182 | 1037 | 0.42
